Measurements reported in paper PMC8222254, “Self-assembly of an anion receptor with metal-dependent kinase inhibition and potent in vitro anti-cancer properties” (Nature Communications, 2021).
Values joined by “and” are separate entries in the source; they are usually repeats but may differ in a detail not shown here. Identical values can stand only once.

Columns and labels:
Assay in all cases: Kinase inhibition screen, cell-free 33P ATP assay at 10 μM
Format in all cases: biochemical
[1] = target: 140 purified human kinases (Homo sapiens, UniProt O75116); conditions: ROCK 2
Outline: (§1)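 Radiometric ^33P ATP cell-free format with purified enzymes; both complexes run at 10 μM in duplicate, results plotted on a kinome map via HGNC symbols.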

[2] = target: T1, 140 purified human kinases (Homo sapiens, UniProt P54760)
T1 sequence (P54760 16-987): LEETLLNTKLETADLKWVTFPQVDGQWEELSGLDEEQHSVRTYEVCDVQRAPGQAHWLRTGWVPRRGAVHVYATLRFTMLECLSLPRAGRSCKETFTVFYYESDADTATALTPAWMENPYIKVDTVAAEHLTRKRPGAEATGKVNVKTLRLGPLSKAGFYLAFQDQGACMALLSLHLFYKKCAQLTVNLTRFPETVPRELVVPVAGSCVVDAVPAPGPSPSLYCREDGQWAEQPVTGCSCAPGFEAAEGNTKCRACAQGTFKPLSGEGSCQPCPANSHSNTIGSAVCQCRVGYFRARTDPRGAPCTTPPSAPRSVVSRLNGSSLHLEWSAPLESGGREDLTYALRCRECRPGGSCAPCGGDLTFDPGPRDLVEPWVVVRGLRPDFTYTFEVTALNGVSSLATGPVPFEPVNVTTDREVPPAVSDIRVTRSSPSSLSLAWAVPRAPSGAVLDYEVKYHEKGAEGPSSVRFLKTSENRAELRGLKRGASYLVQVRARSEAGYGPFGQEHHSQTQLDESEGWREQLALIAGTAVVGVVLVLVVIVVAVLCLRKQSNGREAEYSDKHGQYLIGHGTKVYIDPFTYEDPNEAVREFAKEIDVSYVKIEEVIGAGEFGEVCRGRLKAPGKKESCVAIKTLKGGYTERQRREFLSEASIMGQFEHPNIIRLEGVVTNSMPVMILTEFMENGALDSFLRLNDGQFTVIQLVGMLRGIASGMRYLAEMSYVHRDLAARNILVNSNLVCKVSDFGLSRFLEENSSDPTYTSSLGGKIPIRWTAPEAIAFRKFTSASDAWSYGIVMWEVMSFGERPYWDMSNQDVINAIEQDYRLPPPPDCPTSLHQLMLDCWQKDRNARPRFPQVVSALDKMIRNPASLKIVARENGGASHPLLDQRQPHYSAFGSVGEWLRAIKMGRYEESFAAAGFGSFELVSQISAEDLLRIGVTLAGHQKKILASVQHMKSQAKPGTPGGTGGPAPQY
Outline: as §1

[3] = target: T2, 140 purified human kinases (Homo sapiens, UniProt Q8IYT8)
T2 sequence (Q8IYT8 1-1036): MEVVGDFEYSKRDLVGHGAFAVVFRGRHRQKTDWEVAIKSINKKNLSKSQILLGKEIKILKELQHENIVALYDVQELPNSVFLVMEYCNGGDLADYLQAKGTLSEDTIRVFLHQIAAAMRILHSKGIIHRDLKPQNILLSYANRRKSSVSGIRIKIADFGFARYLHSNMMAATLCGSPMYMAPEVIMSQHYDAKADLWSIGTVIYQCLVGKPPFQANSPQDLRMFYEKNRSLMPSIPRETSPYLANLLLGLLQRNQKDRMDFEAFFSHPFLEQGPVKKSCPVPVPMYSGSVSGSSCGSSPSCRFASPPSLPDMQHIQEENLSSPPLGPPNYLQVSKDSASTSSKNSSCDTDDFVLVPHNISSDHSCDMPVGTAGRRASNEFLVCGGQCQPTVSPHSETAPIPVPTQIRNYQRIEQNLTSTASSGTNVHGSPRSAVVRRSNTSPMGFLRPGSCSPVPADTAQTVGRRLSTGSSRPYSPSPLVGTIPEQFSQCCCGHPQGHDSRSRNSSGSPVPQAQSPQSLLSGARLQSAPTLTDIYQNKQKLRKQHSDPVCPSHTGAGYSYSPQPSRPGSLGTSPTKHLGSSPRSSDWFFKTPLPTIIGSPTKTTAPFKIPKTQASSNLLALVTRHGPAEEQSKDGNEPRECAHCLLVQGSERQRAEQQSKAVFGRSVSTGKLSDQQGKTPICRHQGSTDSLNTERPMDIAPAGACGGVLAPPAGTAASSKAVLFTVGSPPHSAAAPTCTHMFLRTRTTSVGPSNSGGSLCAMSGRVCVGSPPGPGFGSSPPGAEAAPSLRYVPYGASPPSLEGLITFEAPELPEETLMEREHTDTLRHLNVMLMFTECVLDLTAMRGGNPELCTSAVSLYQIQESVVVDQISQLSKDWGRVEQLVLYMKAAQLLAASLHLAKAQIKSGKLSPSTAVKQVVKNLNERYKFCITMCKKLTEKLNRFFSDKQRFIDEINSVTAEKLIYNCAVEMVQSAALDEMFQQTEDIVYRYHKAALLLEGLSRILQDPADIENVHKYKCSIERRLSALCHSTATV
Outline: as §1

[4] = target: 140 purified human kinases (Homo sapiens, UniProt Q9P1W9)
Outline: as §1

[5] = target: 140 purified human kinases (Homo sapiens, UniProt Q13164)
Outline: as §1

Chain of 140 purified human kinases (Homo sapiens, UniProt Q9P1W9) (Q9P1W9 whole entry): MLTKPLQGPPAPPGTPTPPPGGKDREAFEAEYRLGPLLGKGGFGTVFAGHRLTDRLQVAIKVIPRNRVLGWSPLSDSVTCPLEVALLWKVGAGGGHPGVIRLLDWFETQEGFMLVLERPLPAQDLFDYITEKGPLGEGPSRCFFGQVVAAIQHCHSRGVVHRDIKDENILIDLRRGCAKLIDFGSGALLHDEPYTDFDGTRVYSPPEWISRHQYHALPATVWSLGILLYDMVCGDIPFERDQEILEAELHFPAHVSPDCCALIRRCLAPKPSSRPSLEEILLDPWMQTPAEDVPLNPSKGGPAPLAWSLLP
Chain of 140 purified human kinases (Homo sapiens, UniProt O75116) (O75116 whole entry): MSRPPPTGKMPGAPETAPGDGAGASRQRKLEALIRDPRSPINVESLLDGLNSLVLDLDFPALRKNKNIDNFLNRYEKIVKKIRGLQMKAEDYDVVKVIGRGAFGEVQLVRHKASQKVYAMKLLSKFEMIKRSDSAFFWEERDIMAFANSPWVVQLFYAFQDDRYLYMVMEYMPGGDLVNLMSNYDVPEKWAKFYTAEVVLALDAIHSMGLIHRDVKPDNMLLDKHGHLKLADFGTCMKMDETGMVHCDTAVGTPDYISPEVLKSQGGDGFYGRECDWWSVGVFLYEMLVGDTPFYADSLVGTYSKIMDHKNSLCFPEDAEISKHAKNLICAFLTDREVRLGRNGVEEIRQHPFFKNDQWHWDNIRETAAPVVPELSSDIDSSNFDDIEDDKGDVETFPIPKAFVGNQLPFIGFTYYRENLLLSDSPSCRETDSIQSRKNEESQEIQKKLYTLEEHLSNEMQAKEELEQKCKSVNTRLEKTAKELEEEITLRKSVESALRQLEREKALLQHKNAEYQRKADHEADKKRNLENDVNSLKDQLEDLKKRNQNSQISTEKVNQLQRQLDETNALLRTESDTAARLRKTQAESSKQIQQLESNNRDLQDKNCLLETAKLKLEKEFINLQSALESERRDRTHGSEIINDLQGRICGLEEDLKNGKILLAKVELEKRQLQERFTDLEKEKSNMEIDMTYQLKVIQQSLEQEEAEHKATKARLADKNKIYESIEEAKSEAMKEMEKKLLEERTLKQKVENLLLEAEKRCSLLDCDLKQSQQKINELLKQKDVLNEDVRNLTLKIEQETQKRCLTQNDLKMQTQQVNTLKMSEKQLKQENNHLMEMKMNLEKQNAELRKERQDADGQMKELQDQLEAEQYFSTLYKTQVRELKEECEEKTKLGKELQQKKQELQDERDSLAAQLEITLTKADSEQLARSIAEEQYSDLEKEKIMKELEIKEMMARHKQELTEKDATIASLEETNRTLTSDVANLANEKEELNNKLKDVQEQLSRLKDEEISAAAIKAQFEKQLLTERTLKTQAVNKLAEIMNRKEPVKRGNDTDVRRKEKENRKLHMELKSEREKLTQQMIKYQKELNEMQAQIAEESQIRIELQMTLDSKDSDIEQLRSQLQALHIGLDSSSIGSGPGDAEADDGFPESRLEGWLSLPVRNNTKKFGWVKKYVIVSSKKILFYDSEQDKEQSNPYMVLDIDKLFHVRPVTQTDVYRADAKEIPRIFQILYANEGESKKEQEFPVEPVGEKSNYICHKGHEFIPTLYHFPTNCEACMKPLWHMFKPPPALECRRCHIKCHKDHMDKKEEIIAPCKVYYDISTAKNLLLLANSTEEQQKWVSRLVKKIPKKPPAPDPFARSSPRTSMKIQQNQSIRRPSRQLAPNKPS
Chain of 140 purified human kinases (Homo sapiens, UniProt Q13164) (Q13164 whole entry): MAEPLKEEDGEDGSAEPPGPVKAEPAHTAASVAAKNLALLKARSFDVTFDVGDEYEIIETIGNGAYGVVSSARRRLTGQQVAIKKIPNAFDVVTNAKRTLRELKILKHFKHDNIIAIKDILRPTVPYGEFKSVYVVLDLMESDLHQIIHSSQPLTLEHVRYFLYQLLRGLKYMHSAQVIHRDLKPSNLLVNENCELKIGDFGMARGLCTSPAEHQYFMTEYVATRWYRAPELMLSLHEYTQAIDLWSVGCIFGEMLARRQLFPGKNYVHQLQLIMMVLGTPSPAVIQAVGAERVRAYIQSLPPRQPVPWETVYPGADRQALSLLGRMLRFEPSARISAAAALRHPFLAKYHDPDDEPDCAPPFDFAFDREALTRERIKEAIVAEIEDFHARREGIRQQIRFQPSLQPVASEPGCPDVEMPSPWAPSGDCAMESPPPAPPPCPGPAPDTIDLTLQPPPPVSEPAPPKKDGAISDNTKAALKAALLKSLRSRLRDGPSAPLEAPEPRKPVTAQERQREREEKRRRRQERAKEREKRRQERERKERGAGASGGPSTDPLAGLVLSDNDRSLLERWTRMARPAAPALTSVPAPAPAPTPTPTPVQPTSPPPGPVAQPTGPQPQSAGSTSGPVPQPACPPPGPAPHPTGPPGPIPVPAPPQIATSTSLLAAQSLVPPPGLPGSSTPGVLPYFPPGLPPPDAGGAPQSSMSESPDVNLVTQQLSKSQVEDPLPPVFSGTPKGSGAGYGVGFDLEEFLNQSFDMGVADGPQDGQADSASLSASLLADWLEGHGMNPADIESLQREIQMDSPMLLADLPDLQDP

SMILES: [Cu+2].[Cu+2].[Cu+2].c1ccc(-c2csc(NCCN(CCNc3nc(-c4ccccn4)cs3)CCNc3nc(-c4ccccn4)cs3)n2)nc1.c1ccc(-c2csc(NCCN(CCNc3nc(-c4ccccn4)cs3)CCNc3nc(-c4ccccn4)cs3)n2)nc1 [[L2Cu3]6+]
- % Inhibition Run 1 [1]: 83.5%
- % Inhibition Run 2 [1]: 77.5%
- % Inhibition, Mean [1]: 81%
- mean % activity [1]: 20%
- % Inhibition Run 1 ([2]; EPH-B4): 53.6%
- % Inhibition Run 2 ([2]; EPH-B4): 47.1%
- % Inhibition, Mean ([2]; EPH-B4): 50%
- mean % activity ([2]; EPH-B4): 50%
- % activity ([2]; EPH-B4, Run 1): 46.4%
- % activity ([2]; EPH-B4, Run 2): 52.9%
- % Inhibition Run 1 ([3]; ULK2): 48%
- % Inhibition Run 2 ([3]; ULK2): 52.6%
- % Inhibition, Mean ([3]; ULK2): 50%
- mean % activity ([3]; ULK2): 50%
- % activity ([3]; ULK2, Run 1): 52%
- % activity ([3]; ULK2, Run 2): 47.4%
- % Inhibition Run 1 ([4]; PIM2): -3.6%
- % Inhibition Run 2 ([4]; PIM2): 7%
- % Inhibition, Mean ([4]; PIM2): 1.7%
- mean % activity ([4]; PIM2): 98%
- % activity ([4]; PIM2, Run 1): 103.6%
- % activity ([4]; PIM2, Run 2): 93%
- % Activation, Mean value ([5]; ERK5): 2%
- % Inhibition Run 1 ([5]; ERK5): 3%
- % Inhibition Run 2 ([5]; ERK5): -7.2%
- % Inhibition, Mean ([5]; ERK5): -2%
- mean % activity ([5]; ERK5): 102%
- % activity ([5]; ERK5, Run 1): 97%
- % activity ([5]; ERK5, Run 2): 107.2%

SMILES: CC(=O)[O-].CC(=O)[O-].CC(=O)[O-].CC(=O)[O-].CC(=O)[O-].CC(=O)[O-].[Zn+2].[Zn+2].[Zn+2].c1ccc(-c2csc(NCCN(CCNc3nc(-c4ccccn4)cs3)CCNc3nc(-c4ccccn4)cs3)n2)nc1.c1ccc(-c2csc(NCCN(CCNc3nc(-c4ccccn4)cs3)CCNc3nc(-c4ccccn4)cs3)n2)nc1 [[L2Zn3]6+]
- % Activation, Mean value [1]: 17%
- % Inhibition, Mean [1]: -17%
- % Inhibition, Run 1 / Run 2 [1]: -20% and -14%
- mean % activity [1]: 117%
- % Activity Run 1 ([1]; 10 µM): 120.0%
- % Activity Run 2 ([1]; 10 µM): 114.0%
- % activity ([1]; duplicate runs): 120% and 114%
- % Inhibition, Mean ([2]; EPH-B4): 52%
- % Inhibition, Run 1 / Run 2 ([2]; EPH-B4): 52%
- mean % activity ([2]; EPH-B4): 48%
- % activity ([2]; EPH-B4, duplicate runs): 48%
- % Activation, Mean value ([3]; ULK2): 2%
- % Inhibition, Mean ([3]; ULK2): -2%
- mean % activity ([3]; ULK2): 102%
- % activity ([3]; ULK2, duplicate runs): 95% and 109%
- % Inhibition, Mean ([4]; PIM2): 1.85%
- mean % activity ([4]; PIM2): 98%
- % activity ([4]; PIM2, duplicate runs): 87% and 109%
- % Inhibition, Mean ([5]; ERK5): 16%
- mean % activity ([5]; ERK5): 84%
- % activity ([5]; ERK5, duplicate runs): 65% and 104%
